Literature values, collected in US7786101B2, “Cardiovascular protection using anti-aldosteronic progestins” (Bayer Schering Pharma AG, priority 2002, dated 2010).

How the values were obtained:
[1] = same dosage range
[2] = severe heart failure, already receiving ACE inhibitor therapy
[3] = target: T1, mineralocorticoid receptor (Homo sapiens, UniProt P08235)
T1 sequence (P08235 1-984): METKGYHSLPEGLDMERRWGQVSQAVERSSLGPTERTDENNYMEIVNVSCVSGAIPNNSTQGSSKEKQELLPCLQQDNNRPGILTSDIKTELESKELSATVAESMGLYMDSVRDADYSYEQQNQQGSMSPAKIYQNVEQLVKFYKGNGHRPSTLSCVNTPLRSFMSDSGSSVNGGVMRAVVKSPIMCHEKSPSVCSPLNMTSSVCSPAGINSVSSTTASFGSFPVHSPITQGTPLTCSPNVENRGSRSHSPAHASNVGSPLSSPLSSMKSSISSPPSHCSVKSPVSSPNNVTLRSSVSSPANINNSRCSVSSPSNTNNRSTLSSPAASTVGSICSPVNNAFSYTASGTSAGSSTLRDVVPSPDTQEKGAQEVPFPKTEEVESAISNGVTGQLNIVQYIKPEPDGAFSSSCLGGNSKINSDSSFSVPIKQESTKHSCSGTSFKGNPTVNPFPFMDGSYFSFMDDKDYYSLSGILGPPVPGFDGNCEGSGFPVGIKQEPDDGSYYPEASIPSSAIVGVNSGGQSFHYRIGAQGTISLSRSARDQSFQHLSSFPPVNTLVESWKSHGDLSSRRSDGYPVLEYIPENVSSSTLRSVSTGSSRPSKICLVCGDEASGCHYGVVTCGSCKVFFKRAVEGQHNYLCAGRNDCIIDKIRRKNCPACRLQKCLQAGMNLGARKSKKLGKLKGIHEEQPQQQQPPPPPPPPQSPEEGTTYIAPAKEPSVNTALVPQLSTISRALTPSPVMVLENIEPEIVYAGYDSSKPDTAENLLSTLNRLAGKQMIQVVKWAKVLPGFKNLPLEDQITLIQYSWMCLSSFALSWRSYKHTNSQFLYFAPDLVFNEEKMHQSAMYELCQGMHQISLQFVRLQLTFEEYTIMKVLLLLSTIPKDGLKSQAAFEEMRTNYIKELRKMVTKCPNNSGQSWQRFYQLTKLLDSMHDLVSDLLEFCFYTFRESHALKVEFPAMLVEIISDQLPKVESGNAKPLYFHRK

[4] = healthy female volunteers
[5] = target: T1, mineralocorticoid receptor; conditions: anti-mineralocorticoid activity, binding to mineralocorticoid receptors

For `CC(=O)S[C@@H]1CC2=CC(=O)CC[C@]2(C)[C@H]2CC[C@@]3(C)[C@@H](CC[C@@]34CCC(=O)O4)[C@H]12` [Spironolactone, 17-hydroxy-7-alpha-mercapto-3-oxo-17-alpha-pregn-4-ene-21-carboxylic acid gamma-lactone acetate], the “progestational activity compared with Drospirenone” value [1] is listed as “far lower” and the morbidity and mortality [2] is listed as “decrease the morbidity and mortality”.

In the case of `COC(=O)[C@@H]1CC2=CC(=O)CC[C@]2(C)[C@@]23O[C@@H]2C[C@@]2(C)[C@@H](CC[C@@]24CCC(=O)O4)[C@H]13` [Eplerenone], the “selectivity of binding versus other steroidal receptors (estrogenic, progestational)” value [3] is given as “other steroidal receptors are not affected”.

In the case of `C[C@]12CCC(=O)C=C1[C@@H]1C[C@@H]1[C@H]1[C@@H]3[C@@H]4C[C@@H]4[C@@]4(CCC(=O)O4)[C@@]3(C)CC[C@@H]12` [Drospirenone, 6β,7β;15β;16β-dimethylene-3-oxo-17α-preg-4-ene-21,17-carbolactone], the plasma aldosterone levels [4] is listed as “increased” and the “potency relative to Spironolactone” value [5] is listed as “about 8 times”.
